These results are taken from US20060134602A1, “Methods of identifying cytotoxic effects in quiescent cells” (priority 2004, published 2006).

Data set [1] deals with quiescent IMR-90 human lung fibroblasts. In words: cells. The method, then:
Quantitation of Cytotoxicity: A luciferase assay kit was used to quantitate the amount of ATP produced by cells in each well to measure cytotoxicity of the compounds. The assay utilizes the enzyme luciferase which catalyses a reaction of ATP and luciferin to form light. The light produced is measured to determine the amount of ATP produced by the cells in each well. The higher the cell mortality in each well, the less ATP, and consequently, the less light will be produced. […] Wells in rows one and two, which contained no compound, were controls.
Preparation of Quiescent Cells: A 96 well plate was plated at 0.8×10^4 cells/well in 200 μL of growth medium (MEM with Earle's salt) with IMR-90 human lung fibroblasts. The cells were incubated at 37° C. for four days.
The media was removed from the wells, and each well was washed twice with 200 μL of MEM with Earle's salt and no serum. 90 μL/well of MEM with Earle's salt media containing sodium pyruvate, non-essential amino acids, L-glutamine and 0.1% fetal bovine serum was added to each well, and the cells were incubated for one day at 37° C.
10 μL of carbonyl cyanide (a positive control for cytotoxicity) stock solutions were added to rows one and two to obtain concentrations of 0 μM, 0.003 μM, 0.01 μM, 0.03 μM, 0.1 μM, 0.3 μM, 1.0 μM, 3.0 μM, 10.0 μM, 30.0 μM, and 100.0 μM in wells 2 through 12. 10 μL of stock solution of test compounds were added to duplicate row to obtain concentrations of 0 μM, 0.003 μM, 0.01 μM, 0.03 μM, 0.1 μM, 0.3 μM, 1.0 μM, 3.0 μM, 10.0 μM, 30.0 μM, and 100.0 μM in wells 2 through 12. The first well in each row contained no cells. […] The cells were incubated with the test compounds for 24 hours, 48 hours, or 72 hours.

Data set [2] deals with proliferating cancer cells. The conditions noted are these: cited from earlier work.
Setting [3] is: read-out: IC50, 24 hours, quiescent IMR-90 human lung fibroblasts, 24 hours incubation.
Setting [4] is: read-out: IC50, 48 hours, quiescent IMR-90 human lung fibroblasts, 48 hours incubation.
Setting [5] is: read-out: IC50, 72 hours, quiescent IMR-90 human lung fibroblasts, 72 hours incubation.
[6] abbreviates: Homo sapiens, IMR-90, 24 h, read-out: IC50, 24 hours, quiescent IMR-90 human lung fibroblasts, 24 hours incubation.
Setting [7] is: Homo sapiens, IMR-90, 48 h, read-out: IC50, 48 hours, quiescent IMR-90 human lung fibroblasts, 48 hours incubation.
The mark [8] stands for this setting: Homo sapiens, IMR-90, 72 h, read-out: IC50, 72 hours, quiescent IMR-90 human lung fibroblasts, 72 hours incubation.

Where two headings read alike, the source gives them in different places. *1 amine or outer side, *2 acyl side, *3 side chain or, on linkers, in order; H or OH if unused. Where a SMILES comes first, the peptide text is derived from it. Bridges are numbered along the chain shown (N, C = ends). Roman numbers before positions name the chains, in order. [ ]: non-standard residue; d: D form. Actinocin(9to1) = Cc1c2oc3c(C)ccc(C(=O)[*:1])c3nc-2c(C(=O)[*:2])c(N)c1=O; NMeV = CN[C@H](C(=O)O)C(C)C; Sar = CNCC(=O)O

The term IC50 denotes the concentration that gives 50% inhibition.

Turning to `O=c1[nH]cc(F)c(=O)[nH]1` [5-FU, 5-fluorouricil], the half-maximal inhibitory concentration (IC50) in data set [1] (setting [3]), in data set [1] (setting [4]) and in data set [1] (setting [5]) was above 10 µM in each case.
Consider `Cc1c2oc3c(C)ccc(C(=O)N[C@@H]4C(=O)N[C@H](C(C)C)C(=O)N5CCC[C@H]5C(=O)N(C)CC(=O)N(C)[C@@H](C(C)C)C(=O)O[C@@H]4C)c3nc-2c(C(=O)N[C@@H]2C(=O)N[C@H](C(C)C)C(=O)N3CCC[C@H]3C(=O)N(C)CC(=O)N(C)[C@@H](C(C)C)C(=O)O[C@@H]2C)c(N)c1=O` [Atinomycin D, actinomycin D] (I: T[dV]P[Sar][NMeV] / II: T[dV]P[Sar][NMeV]; ester I:1-I:C, II:1-II:C; linker I:N-II:N via Actinocin(9to1)), for which, in data set [1], the “time dependence of cytotoxicity against quiescent fibroblasts” value was “time-dependent increases in cytotoxicity”. Also, the half-maximal inhibitory concentration (IC50) was above 10 µM in data set [1] (setting [3]), above 10 µM in data set [1] (setting [4]) and 3.1 µM in data set [1] (setting [5]).
As to `COc1cccc2c1C(=O)c1c(O)c3c(c(O)c1C2=O)C[C@@](O)(C(=O)CO)C[C@@H]3O[C@H]1C[C@H](N)[C@H](O)[C@H](C)O1` [Doxorubicin, doxorubicin], in data set [1], the “time dependence of cytotoxicity against quiescent fibroblasts” value was “time-dependent increases in cytotoxicity”. In addition, the half-maximal inhibitory concentration (IC50) in data set [1] (setting [6]) is above 10 µM; in data set [1] (setting [7]) it was 5.3 µM; in data set [1] (setting [8]), 2.5 µM.
`COc1cc([C@@H]2c3cc4c(cc3[C@@H](O[C@@H]3O[C@@H]5CO[C@@H](C)O[C@H]5[C@H](O)[C@H]3O)[C@H]3COC(=O)[C@H]23)OCO4)cc(OC)c1O` [Etoposide, etoposide]: the half-maximal inhibitory concentration (IC50) in data set [1] (setting [6]), in data set [1] (setting [7]) and in data set [1] (setting [8]) was above 10 µM each time.
For `Nc1ccn([C@@H]2O[C@H](CO)[C@@H](O)C2(F)F)c(=O)n1` [Gemcitabine, gemcitabine], the IC50 in data set [1] (setting [6]), in data set [1] (setting [7]) and in data set [1] (setting [8]) was above 10 µM throughout.
In the case of `CO[C@@]12[C@H](COC(N)=O)C3=C(C(=O)C(C)=C(N)C3=O)N1C[C@@H]1N[C@@H]12` [Mitomycin C, mitomycin C], the concentration for half-maximal inhibition (IC50) in data set [1] (setting [3]) was above 10 µM; in data set [1] (setting [4]), above 10 µM; in data set [1] (setting [5]) it was 5 µM.
For `O=C1[O][Pt]2([NH][C@@H]3CCCC[C@H]3[NH]2)[O]C1=O` [Oxaliplatin, oxaliplatin], the concentration for half-maximal inhibition (IC50) in data set [1] (setting [3]), in data set [1] (setting [4]) and in data set [1] (setting [5]) was above 10 µM each time.
In the case of `CC(=O)O[C@H]1C(=O)[C@@]2(C)[C@H]([C@H](OC(=O)c3ccccc3)[C@]3(O)C[C@H](OC(=O)[C@H](O)[C@@H](NC(=O)c4ccccc4)c4ccccc4)C(C)=C1C3(C)C)[C@]1(OC(C)=O)CO[C@@H]1C[C@@H]2O` [Paclitaxel, paclitaxel], the IC50 is above 10 µM in data set [1] (setting [6]), above 10 µM in data set [1] (setting [7]), 8.5 µM in data set [1] (setting [8]) and 10 µM in data set [1] (setting [5]). In addition, the “concentration at which cytotoxic to quiescent fibroblasts” value in data set [1] (human, 72 h) was “approximately 10 μM”. For the same molecule, in data set [2], the “concentration inhibiting cancer cell growth” value is on record as “low nanomolar concentration”.
Take `CCc1c2c(nc3ccc(O)cc13)-c1cc3c(c(=O)n1C2)COC(=O)[C@]3(O)CC` [SN-38]: the results for the concentration for half-maximal inhibition (IC50) in data set [1] (setting [3]), in data set [1] (setting [4]) and in data set [1] (setting [5]) were 7.1 µM, 8 µM and 8.5 µM, respectively.
Consider `CC[C@]1(O)C[C@@H]2CN(CCc3c([nH]c4ccccc34)[C@@](C(=O)OC)(c3cc4c(cc3OC)N(C)[C@H]3[C@@](O)(C(=O)OC)[C@H](OC(C)=O)[C@]5(CC)C=CCN6CC[C@]43[C@@H]65)C2)C1` [Vinblastine, vinblastine], for which the concentration for half-maximal inhibition (IC50) in data set [1] (setting [6]), in data set [1] (setting [7]) and in data set [1] (setting [8]) was above 10 µM in each case.
As to `CC[C@]1(O)C[C@H]2CN(CCc3c([nH]c4ccccc34)[C@@](C(=O)OC)(c3cc4c(cc3OC)N(C=O)[C@H]3[C@@](O)(C(=O)OC)[C@H](OC(C)=O)[C@]5(CC)C=CCN6CC[C@]43[C@@H]65)C2)C1` [Vincristine, vincristine], the concentration for half-maximal inhibition (IC50) in data set [1] (setting [6]), in data set [1] (setting [7]) and in data set [1] (setting [8]) was above 10 µM in each case.
In the case of `C[C@@H]1C[C@@H]([C@H](O)CC2CC(=O)NC(=O)C2)C(=O)[C@@H](C)C1` [cycloheximide], the half-inhibitory concentration (IC50) is above 10 µM in data set [1] (Homo sapiens, IMR-90, 24 h, read-out: IC50, 24 hours); above 10 µM in data set [1] (Homo sapiens, IMR-90, 48 h, read-out: IC50, 48 hours); above 10 µM in data set [1] (Homo sapiens, IMR-90, 72 h, read-out: IC50, 72 hours).
